In publication PMC6883173 (Nature, 2019):

Tests used:
SpoT1–387 = SpoT1–387 (Pseudomonas aeruginosa, UniProt Q9HTM0); assay: NDK/PK/LDH coupled NADH assay; type: biochemical
PurF^EC = PurF^EC (Escherichia coli, UniProt P0AG16); assay: coupled PurD/PK/LDH NADH assay; type: biochemical; conditions: 30 °C; 50 nM PurF, 5 mM glutamine, 1 mM pRpp-Mg, 10 mM MgCl2, pH 7.4
crystal structure = molecular target: the molecule itself; assay: crystal structure

Nc1ncnc2c1ncn2[C@@H]1O[C@H](COP(=O)(O)OP(=O)(O)O)[C@@H](OP(=O)(O)OP(=O)(O)O)[C@H]1O [ppApp]
NDK/PK/LDH coupled NADH assay (A340) (SpoT1–387; 1 mM ppApp, otherwise same): ppGpp-hydrolyzing domain of SpoT was substantially less active on ppApp than ppGpp in vitro | activity versus concentration (PurF^EC): Changes to the activity of PurF^EC in the presence of indicated concentrations of ppGpp or ppApp

Nc1nc2c(ncn2[C@@H]2O[C@H](COP(=O)(O)OP(=O)(O)O)[C@@H](OP(=O)(O)OP(=O)(O)O)[C@H]2O)c(=O)[nH]1 [ppGpp]
NDK/PK/LDH coupled NADH assay (A340) (SpoT1–387; 1 mM ppGpp, 10 uM enzyme, 5 mM MnCl2, 2 mM MgCl2, pH 7.4, 30 °C): ppGpp-hydrolyzing domain of SpoT was substantially less active on ppApp than ppGpp in vitro

B1: PurF from E. coli (PurF^EC), glutamine amidophosphoribosyltransferase (enzyme, UniProt P0AG16 1-505, looked up)
chain: MCGIVGIAGVMPVNQSIYDALTVLQHRGQDAAGIITIDANNCFRLRKANGLVSDVFEARHMQRLQGNMGIGHVRYPTAGSSSASEAQPFYVNSPYGITLAHNGNLTNAHELRKKLFEEKRRHINTTSDSEILLNIFASELDNFRHYPLEADNIFAAIAATNRLIRGAYACVAMIIGHGMVAFRDPNGIRPLVLGKRDIDENRTEYMVASESVALDTLGFDFLRDVAPGEAIYITEEGQLFTRQCADNPVSNPCLFEYVYFARPDSFIDKISVYSARVNMGTKLGEKIAREWEDLDIDVVIPIPETSCDIALEIARILGKPYRQGFVKNRYVGRTFIMPGQQLRRKSVRRKLNANRAEFRDKNVLLVDDSIVRGTTSEQIIEMAREAGAKKVYLASAAPEIRFPNVYGIDMPSATELIAHGREVDEIRQIIGADGLIFQDLNDLIDAVRAENPDIQQFECSVFNGVYVTKDVDQGYLDFLDTLRNDDAKAVQRQNEVENLEMHNEG
stoichiometry N (crystal structure): 4
